Experimental data reported in the NIST ThermoML archive (doi:10.1016/j.jct.2008.06.003).
± gives the expanded uncertainty stated by the source.

How the values were obtained:
[1] = Crystal; for molar enthalpy of sublimation: 298.15 K, Static calorimetry
[2] = Molar enthalpy of transition or fusion; details: Crystal; DSC

SMILES: O=C(O)C1COc2ccccc2O1 (centres undefined) [1,4-benzodioxan-2-carboxylic acid]
- molar enthalpy of sublimation [1]: 28.2 ± 1 kcal/mol

SMILES: OCC1COc2ccccc2O1 (centres undefined) [1,4-benzodioxane-2-methanol]
- Molar enthalpy of transition or fusion [2]: 6.88 ± 0.151 kcal/mol
- molar enthalpy of sublimation [1]: 25.5 ± 0.406 kcal/mol
- Normal melting temperature ([1]; DTA): 89.2 ± 0.53 °C
